Settings: Liquid; for viscosity: Concentric cylinders viscometry

CCn1cc[n+](C)c1.CO[PH](=O)[O-] [1-ethyl-3-methylimidazolium methyl phosphonate]
101.33 kPa
Settings | viscosity [mPa·s]
293.15 K | 156.4
303.15 K | 89.9
313.15 K | 56.11
323.15 K | 37.41
333.15 K | 26.3
343.15 K | 19.32
353.15 K | 14.71
363.15 K | 11.54
373.15 K | 9.289

Settings | mass density [kg/m3]
293.15 K, 101.33 kPa, Vibrating tube method | 1198.3
303.15 K, 101.33 kPa, Vibrating tube method | 1191.7
311.2 K, 10000 kPa, Bellows volumetry | 1189.6
311.2 K, 20000 kPa, Bellows volumetry | 1193.3
311.2 K, 30000 kPa, Bellows volumetry | 1197.1
311.2 K, 40000 kPa, Bellows volumetry | 1200.8
311.2 K, 50000 kPa, Bellows volumetry | 1204.4
311.2 K, 60000 kPa, Bellows volumetry | 1207.8
311.2 K, 70000 kPa, Bellows volumetry | 1211.3
311.2 K, 80000 kPa, Bellows volumetry | 1214.6
311.2 K, 90000 kPa, Bellows volumetry | 1217.9
311.2 K, 100000 kPa, Bellows volumetry | 1221
311.2 K, 110000 kPa, Bellows volumetry | 1224.2
311.2 K, 120000 kPa, Bellows volumetry | 1227.2
311.2 K, 130000 kPa, Bellows volumetry | 1230.3
311.2 K, 140000 kPa, Bellows volumetry | 1233.1
311.2 K, 150000 kPa, Bellows volumetry | 1236.1
311.2 K, 160000 kPa, Bellows volumetry | 1238.9
311.2 K, 170000 kPa, Bellows volumetry | 1241.7
311.2 K, 180000 kPa, Bellows volumetry | 1244.5
311.2 K, 190000 kPa, Bellows volumetry | 1247.2
311.2 K, 200000 kPa, Bellows volumetry | 1249.9
313.15 K, 101.33 kPa, Vibrating tube method | 1185.3
323.15 K, 101.33 kPa, Vibrating tube method | 1178.8
330.9 K, 10000 kPa, Bellows volumetry | 1176.8
330.9 K, 20000 kPa, Bellows volumetry | 1180.9
330.9 K, 30000 kPa, Bellows volumetry | 1184.9
330.9 K, 40000 kPa, Bellows volumetry | 1188.8
330.9 K, 50000 kPa, Bellows volumetry | 1192.5
330.9 K, 60000 kPa, Bellows volumetry | 1196.1
330.9 K, 70000 kPa, Bellows volumetry | 1199.8
330.9 K, 80000 kPa, Bellows volumetry | 1203.3
330.9 K, 90000 kPa, Bellows volumetry | 1206.6
330.9 K, 100000 kPa, Bellows volumetry | 1210
330.9 K, 110000 kPa, Bellows volumetry | 1213.3
330.9 K, 120000 kPa, Bellows volumetry | 1216.4
330.9 K, 130000 kPa, Bellows volumetry | 1219.5
330.9 K, 140000 kPa, Bellows volumetry | 1222.5
330.9 K, 150000 kPa, Bellows volumetry | 1225.4
330.9 K, 160000 kPa, Bellows volumetry | 1228.3
330.9 K, 170000 kPa, Bellows volumetry | 1231.2
330.9 K, 180000 kPa, Bellows volumetry | 1234
330.9 K, 190000 kPa, Bellows volumetry | 1236.7
330.9 K, 200000 kPa, Bellows volumetry | 1239.6
333.15 K, 101.33 kPa, Vibrating tube method | 1172.5
343.15 K, 101.33 kPa, Vibrating tube method | 1166.1
351.3 K, 10000 kPa, Bellows volumetry | 1164.2
351.3 K, 20000 kPa, Bellows volumetry | 1168.7
351.3 K, 30000 kPa, Bellows volumetry | 1172.8
351.3 K, 40000 kPa, Bellows volumetry | 1176.9
351.3 K, 50000 kPa, Bellows volumetry | 1180.9
351.3 K, 60000 kPa, Bellows volumetry | 1184.7
351.3 K, 70000 kPa, Bellows volumetry | 1188.4
351.3 K, 80000 kPa, Bellows volumetry | 1192
351.3 K, 90000 kPa, Bellows volumetry | 1195.5
351.3 K, 100000 kPa, Bellows volumetry | 1198.9
351.3 K, 110000 kPa, Bellows volumetry | 1202.1
351.3 K, 120000 kPa, Bellows volumetry | 1205.4
351.3 K, 130000 kPa, Bellows volumetry | 1208.7
351.3 K, 140000 kPa, Bellows volumetry | 1211.8
351.3 K, 150000 kPa, Bellows volumetry | 1214.8
351.3 K, 160000 kPa, Bellows volumetry | 1217.8
351.3 K, 170000 kPa, Bellows volumetry | 1220.8
351.3 K, 180000 kPa, Bellows volumetry | 1223.7
351.3 K, 190000 kPa, Bellows volumetry | 1226.6
351.3 K, 200000 kPa, Bellows volumetry | 1229.5
353.15 K, 101.33 kPa, Vibrating tube method | 1159.9
363.15 K, 101.33 kPa, Vibrating tube method | 1153.8
371.3 K, 10000 kPa, Bellows volumetry | 1152.1
371.3 K, 20000 kPa, Bellows volumetry | 1156.2
371.3 K, 30000 kPa, Bellows volumetry | 1161
371.3 K, 40000 kPa, Bellows volumetry | 1165.2
371.3 K, 50000 kPa, Bellows volumetry | 1169.2
371.3 K, 60000 kPa, Bellows volumetry | 1173.3
371.3 K, 70000 kPa, Bellows volumetry | 1177.2
371.3 K, 80000 kPa, Bellows volumetry | 1180.9
371.3 K, 90000 kPa, Bellows volumetry | 1184.5
371.3 K, 100000 kPa, Bellows volumetry | 1188.2
371.3 K, 110000 kPa, Bellows volumetry | 1191.6
371.3 K, 120000 kPa, Bellows volumetry | 1195
371.3 K, 130000 kPa, Bellows volumetry | 1198.3
371.3 K, 140000 kPa, Bellows volumetry | 1201.6
371.3 K, 150000 kPa, Bellows volumetry | 1204.7
371.3 K, 160000 kPa, Bellows volumetry | 1207.9
371.3 K, 170000 kPa, Bellows volumetry | 1210.9
371.3 K, 180000 kPa, Bellows volumetry | 1213.9
371.3 K, 190000 kPa, Bellows volumetry | 1216.8
371.3 K, 200000 kPa, Bellows volumetry | 1219.8
373.15 K, 101.33 kPa, Vibrating tube method | 1147.6
391.2 K, 10000 kPa, Bellows volumetry | 1140.6
391.2 K, 20000 kPa, Bellows volumetry | 1144.9
391.2 K, 30000 kPa, Bellows volumetry | 1149.5
391.2 K, 40000 kPa, Bellows volumetry | 1154
391.2 K, 50000 kPa, Bellows volumetry | 1158.2
391.2 K, 60000 kPa, Bellows volumetry | 1162.3
391.2 K, 70000 kPa, Bellows volumetry | 1166.4
391.2 K, 80000 kPa, Bellows volumetry | 1170.4
391.2 K, 90000 kPa, Bellows volumetry | 1174.1
391.2 K, 100000 kPa, Bellows volumetry | 1177.9
391.2 K, 110000 kPa, Bellows volumetry | 1181.4
391.2 K, 120000 kPa, Bellows volumetry | 1184.9
391.2 K, 130000 kPa, Bellows volumetry | 1188.3
391.2 K, 140000 kPa, Bellows volumetry | 1191.6
391.2 K, 150000 kPa, Bellows volumetry | 1194.9
391.2 K, 160000 kPa, Bellows volumetry | 1198.1
391.2 K, 170000 kPa, Bellows volumetry | 1201.2
391.2 K, 180000 kPa, Bellows volumetry | 1204.2
391.2 K, 190000 kPa, Bellows volumetry | 1207.2
391.2 K, 200000 kPa, Bellows volumetry | 1210.2
411.1 K, 10000 kPa, Bellows volumetry | 1128.7
411.1 K, 20000 kPa, Bellows volumetry | 1133.3
411.1 K, 30000 kPa, Bellows volumetry | 1138.1
411.1 K, 40000 kPa, Bellows volumetry | 1142.8
411.1 K, 50000 kPa, Bellows volumetry | 1147.3
411.1 K, 60000 kPa, Bellows volumetry | 1151.7
411.1 K, 70000 kPa, Bellows volumetry | 1155.8
411.1 K, 80000 kPa, Bellows volumetry | 1159.9
411.1 K, 90000 kPa, Bellows volumetry | 1163.9
411.1 K, 100000 kPa, Bellows volumetry | 1167.6
411.1 K, 110000 kPa, Bellows volumetry | 1171.3
411.1 K, 120000 kPa, Bellows volumetry | 1174.9
411.1 K, 130000 kPa, Bellows volumetry | 1178.4
411.1 K, 140000 kPa, Bellows volumetry | 1181.8
411.1 K, 150000 kPa, Bellows volumetry | 1185.3
411.1 K, 160000 kPa, Bellows volumetry | 1188.5
411.1 K, 170000 kPa, Bellows volumetry | 1191.7
411.1 K, 180000 kPa, Bellows volumetry | 1194.8
411.1 K, 190000 kPa, Bellows volumetry | 1197.9
411.1 K, 200000 kPa, Bellows volumetry | 1201

Reference: the NIST ThermoML archive (doi:10.1021/je5009679)
